According to ChEMBL document CHEMBL3885861, “Open TG-GATES”:

Species: Rattus norvegicus
Assay: Open TG-GATES - Regimen: Single
Type: toxicity, organism-based, Sprague-Dawley
Set-up: regimen Single, gender Male, age 6 weeks
Conditions: in vivo, po, route gavage; for TC / TG / TP / gamma-GTP / A/G / ALP / ALT / AST / BUN / CRE / Ca / Cl / GLC / IP / K / LDH / Na / PL / RALB: tissue Plasma; for APTT / Bas / Eos / Fbg / Hb / Ht / Lym / MCH / MCHC / MCV / Mono / Neu / PT / Plat / RBC / Ret / WBC: tissue Blood; for KIDNEY_L / KIDNEY_R / KIDNEY_TOTAL: tissue Kidney; for LIVER: tissue Liver
[1] = 300 mg/kg, 24 h, dose level Low
[2] = 1000 mg/kg, 3 h, dose level Middle
[3] = 1000 mg/kg, 6 h, dose level Middle
[4] = 1000 mg/kg, 9 h, dose level Middle
[5] = 1000 mg/kg, 24 h, dose level Middle
[6] = 2000 mg/kg, 3 h, dose level High
[7] = 2000 mg/kg, 6 h, dose level High
[8] = 2000 mg/kg, 9 h, dose level High
[9] = 2000 mg/kg, 24 h, dose level High

O=C(O)c1ccccc1Nc1ccccc1 [FENAMIC ACID]
TC [1]: 74.8 mg/dL
TG [1]: 88 mg/dL
TP [1]: 5.6 g/dL
gamma-GTP [1]: 1 IU/L
TERMINAL_BW [2]: 208.9 g
APTT [2]: 17.2 s
Bas [2]: 0.8%
Eos [2]: 0.6%
Fbg [2]: 253.8 mg/dL
Hb [2]: 13.4 g/dL
Ht [2]: 40.2%
Lym [2]: 71.4%
MCH [2]: 20.5 pg
MCHC [2]: 33.5%
MCV [2]: 61.1 fL
Mono [2]: 2.8%
Neu [2]: 24.4%
PT [2]: 14.1 s
Plat [2]: 115 x10_4/uL
RBC [2]: 657.4 x10_4/ul
Ret [2]: 8%
WBC [2]: 93.3 x10_2/uL
KIDNEY_L [2]: 0.9 g
KIDNEY_R [2]: 0.9 g
KIDNEY_TOTAL [2]: 1.8 g
LIVER [2]: 7.8 g
A/G [2]: 0.9
ALP [2]: 1837.8 IU/L
ALT [2]: 38.4 IU/L
AST [2]: 75.4 IU/L
BUN [2]: 9.6 mg/dL
CRE [2]: 0.1 mg/dL
Ca [2]: 11 mg/dL
Cl [2]: 105.2 meq/L
GLC [2]: 169.2 mg/dL
IP [2]: 10.3 mg/dL
K [2]: 4 meq/L
LDH [2]: 71.8 IU/L
Na [2]: 144 meq/L
PL [2]: 96.4 mg/dL
RALB [2]: 2.5 g/dL
TC [2]: 49 mg/dL
TG [2]: 37 mg/dL
TP [2]: 5.4 g/dL
gamma-GTP [2]: 1 IU/L
TERMINAL_BW [3]: 203 g
APTT [3]: 17 s
Bas [3]: 0.8%
Eos [3]: 1%
Fbg [3]: 286.4 mg/dL
Hb [3]: 13.7 g/dL
Ht [3]: 40.4%
Lym [3]: 66.6%
MCH [3]: 21.2 pg
MCHC [3]: 34%
MCV [3]: 62.4 fL
Mono [3]: 3.2%
Neu [3]: 28.8%
PT [3]: 14.4 s
Plat [3]: 112.9 x10_4/uL
RBC [3]: 646.6 x10_4/ul
Ret [3]: 7.7%
WBC [3]: 98.8 x10_2/uL
KIDNEY_L [3]: 0.9 g
KIDNEY_R [3]: 0.9 g
KIDNEY_TOTAL [3]: 1.8 g
LIVER [3]: 7.4 g
A/G [3]: 0.9
ALP [3]: 1734.6 IU/L
ALT [3]: 37 IU/L
AST [3]: 77.6 IU/L
BUN [3]: 11.4 mg/dL
CRE [3]: 0.1 mg/dL
Ca [3]: 11.1 mg/dL
Cl [3]: 107 meq/L
GLC [3]: 128.4 mg/dL
IP [3]: 10.8 mg/dL
K [3]: 3.9 meq/L
LDH [3]: 73.4 IU/L
Na [3]: 146.2 meq/L
PL [3]: 105.6 mg/dL
RALB [3]: 2.7 g/dL
TC [3]: 53 mg/dL
TG [3]: 37 mg/dL
TP [3]: 5.8 g/dL
gamma-GTP [3]: 1.2 IU/L
TERMINAL_BW [4]: 207.8 g
APTT [4]: 14.8 s
Bas [4]: 0.4%
Eos [4]: 0.8%
Fbg [4]: 281 mg/dL
Hb [4]: 13.9 g/dL
Ht [4]: 41.1%
Lym [4]: 61.8%
MCH [4]: 21.2 pg
MCHC [4]: 33.8%
MCV [4]: 62.8 fL
Mono [4]: 3%
Neu [4]: 33.8%
PT [4]: 14.6 s
Plat [4]: 111.6 x10_4/uL
RBC [4]: 655.6 x10_4/ul
Ret [4]: 8.2%
WBC [4]: 80.5 x10_2/uL
KIDNEY_L [4]: 1 g
KIDNEY_R [4]: 0.9 g
KIDNEY_TOTAL [4]: 1.9 g
LIVER [4]: 7.4 g
A/G [4]: 0.9
ALP [4]: 1965.8 IU/L
ALT [4]: 44.6 IU/L
AST [4]: 75.4 IU/L
BUN [4]: 13.8 mg/dL
CRE [4]: 0.1 mg/dL
Ca [4]: 11.1 mg/dL
Cl [4]: 107.8 meq/L
GLC [4]: 142 mg/dL
IP [4]: 10.9 mg/dL
K [4]: 4 meq/L
LDH [4]: 68.6 IU/L
Na [4]: 146.2 meq/L
PL [4]: 102.8 mg/dL
RALB [4]: 2.6 g/dL
TC [4]: 45.8 mg/dL
TG [4]: 29 mg/dL
TP [4]: 5.7 g/dL
gamma-GTP [4]: 1 IU/L
TERMINAL_BW [5]: 210.6 g
APTT [5]: 14.3 s
Bas [5]: 0.8%
Eos [5]: 0.8%
Fbg [5]: 388 mg/dL
Hb [5]: 13.5 g/dL
Ht [5]: 40.1%
Lym [5]: 70.6%
MCH [5]: 21.3 pg
MCHC [5]: 33.8%
MCV [5]: 62.9 fL
Mono [5]: 3%
Neu [5]: 24.8%
PT [5]: 15 s
Plat [5]: 114.1 x10_4/uL
RBC [5]: 637.8 x10_4/ul
Ret [5]: 7.1%
WBC [5]: 120.4 x10_2/uL
KIDNEY_L [5]: 1 g
KIDNEY_R [5]: 1 g
KIDNEY_TOTAL [5]: 2 g
LIVER [5]: 8.4 g
A/G [5]: 0.9
ALP [5]: 2284.2 IU/L
ALT [5]: 41.2 IU/L
AST [5]: 66 IU/L
BUN [5]: 16.4 mg/dL
CRE [5]: 0.2 mg/dL
Ca [5]: 11.4 mg/dL
Cl [5]: 106.2 meq/L
GLC [5]: 164.6 mg/dL
IP [5]: 8.5 mg/dL
K [5]: 3.7 meq/L
LDH [5]: 142 IU/L
Na [5]: 145.4 meq/L
PL [5]: 104.6 mg/dL
RALB [5]: 2.6 g/dL
TC [5]: 47.4 mg/dL
TG [5]: 46.2 mg/dL
TP [5]: 5.6 g/dL
gamma-GTP [5]: 1 IU/L
TERMINAL_BW [6]: 207.1 g
APTT [6]: 15.4 s
Bas [6]: 0.8%
Eos [6]: 0.8%
Fbg [6]: 258.2 mg/dL
Hb [6]: 13.6 g/dL
Ht [6]: 39.9%
Lym [6]: 67.4%
MCH [6]: 20.6 pg
MCHC [6]: 34.1%
MCV [6]: 60.6 fL
Mono [6]: 3.2%
Neu [6]: 28%
PT [6]: 13.9 s
Plat [6]: 113.5 x10_4/uL
RBC [6]: 658.8 x10_4/ul
Ret [6]: 7.9%
WBC [6]: 76.3 x10_2/uL
KIDNEY_L [6]: 0.9 g
KIDNEY_R [6]: 0.9 g
KIDNEY_TOTAL [6]: 1.9 g
LIVER [6]: 7.7 g
A/G [6]: 0.9
ALP [6]: 1464.2 IU/L
ALT [6]: 41 IU/L
AST [6]: 75.6 IU/L
BUN [6]: 10.8 mg/dL
CRE [6]: 0.1 mg/dL
Ca [6]: 10.9 mg/dL
Cl [6]: 102.8 meq/L
GLC [6]: 181.8 mg/dL
IP [6]: 10.9 mg/dL
K [6]: 4.1 meq/L
LDH [6]: 88.2 IU/L
Na [6]: 143.4 meq/L
PL [6]: 93.4 mg/dL
RALB [6]: 2.6 g/dL
TC [6]: 52 mg/dL
TG [6]: 28.4 mg/dL
TP [6]: 5.5 g/dL
gamma-GTP [6]: 1.2 IU/L
TERMINAL_BW [7]: 206.9 g
APTT [7]: 15.5 s
Bas [7]: 0.8%
Eos [7]: 1%
Fbg [7]: 277.4 mg/dL
Hb [7]: 13.7 g/dL
Ht [7]: 40.6%
Lym [7]: 71.2%
MCH [7]: 21 pg
MCHC [7]: 33.6%
MCV [7]: 62.6 fL
Mono [7]: 3%
Neu [7]: 24%
PT [7]: 14.2 s
Plat [7]: 122.7 x10_4/uL
RBC [7]: 649.2 x10_4/ul
Ret [7]: 8.1%
WBC [7]: 106.2 x10_2/uL
KIDNEY_L [7]: 1 g
KIDNEY_R [7]: 1 g
KIDNEY_TOTAL [7]: 2 g
LIVER [7]: 7.4 g
A/G [7]: 0.9
ALP [7]: 1541.4 IU/L
ALT [7]: 36.4 IU/L
AST [7]: 76.2 IU/L
BUN [7]: 12 mg/dL
CRE [7]: 0.1 mg/dL
Ca [7]: 11.2 mg/dL
Cl [7]: 105.6 meq/L
GLC [7]: 133.2 mg/dL
IP [7]: 11.6 mg/dL
K [7]: 4 meq/L
LDH [7]: 92.8 IU/L
Na [7]: 145.4 meq/L
PL [7]: 105.2 mg/dL
RALB [7]: 2.6 g/dL
TC [7]: 49.8 mg/dL
TG [7]: 34.2 mg/dL
TP [7]: 5.6 g/dL
gamma-GTP [7]: 1 IU/L
TERMINAL_BW [8]: 209.9 g
APTT [8]: 21.5 s
Bas [8]: 0.6%
Eos [8]: 1%
Fbg [8]: 307.4 mg/dL
Hb [8]: 13.6 g/dL
Ht [8]: 39.9%
Lym [8]: 64.6%
MCH [8]: 20.7 pg
MCHC [8]: 34%
MCV [8]: 60.8 fL
Mono [8]: 3.2%
Neu [8]: 30.4%
PT [8]: 14.8 s
Plat [8]: 110.5 x10_4/uL
RBC [8]: 656.8 x10_4/ul
Ret [8]: 8.2%
WBC [8]: 93.3 x10_2/uL
KIDNEY_L [8]: 1 g
KIDNEY_R [8]: 0.9 g
KIDNEY_TOTAL [8]: 1.9 g
LIVER [8]: 7.5 g
A/G [8]: 0.9
ALP [8]: 1863.4 IU/L
ALT [8]: 41.8 IU/L
AST [8]: 82.2 IU/L
BUN [8]: 14.6 mg/dL
CRE [8]: 0.1 mg/dL
Ca [8]: 11.1 mg/dL
Cl [8]: 105.6 meq/L
GLC [8]: 144.6 mg/dL
IP [8]: 11.3 mg/dL
K [8]: 3.9 meq/L
LDH [8]: 80.8 IU/L
Na [8]: 145.6 meq/L
PL [8]: 105.8 mg/dL
RALB [8]: 2.7 g/dL
TC [8]: 45 mg/dL
TG [8]: 50.2 mg/dL
TP [8]: 5.7 g/dL
gamma-GTP [8]: 1 IU/L
TERMINAL_BW [9]: 211.9 g
APTT [9]: 15.6 s
Bas [9]: 1%
Eos [9]: 0.6%
Fbg [9]: 436 mg/dL
Hb [9]: 13.9 g/dL
Ht [9]: 40.7%
Lym [9]: 55.8%
MCH [9]: 20.5 pg
MCHC [9]: 34.1%
MCV [9]: 60.2 fL
Mono [9]: 3.4%
Neu [9]: 39%
PT [9]: 15.2 s
Plat [9]: 121.1 x10_4/uL
RBC [9]: 675.2 x10_4/ul
Ret [9]: 8.7%
WBC [9]: 138 x10_2/uL
KIDNEY_L [9]: 1 g
KIDNEY_R [9]: 1 g
KIDNEY_TOTAL [9]: 2 g
LIVER [9]: 8.4 g
A/G [9]: 0.8
ALP [9]: 2104 IU/L
ALT [9]: 41.6 IU/L
AST [9]: 62.2 IU/L
BUN [9]: 19.2 mg/dL
CRE [9]: 0.1 mg/dL
Ca [9]: 11.2 mg/dL
Cl [9]: 102.8 meq/L
GLC [9]: 145.8 mg/dL
IP [9]: 9.4 mg/dL
K [9]: 3.7 meq/L
LDH [9]: 131.8 IU/L
Na [9]: 141.2 meq/L
PL [9]: 91.4 mg/dL
RALB [9]: 2.6 g/dL
TC [9]: 38.2 mg/dL
TG [9]: 49.2 mg/dL
TP [9]: 5.7 g/dL
gamma-GTP [9]: 1 IU/L
